Assay results from patent publication US20150148235A1, “HERBICIDE-RESISTANT SUNFLOWER PLANTS WITH MULTIPLE HERBICIDE RESISTANT ALLELES OF AHASL1 AND METHODS OF USE” (NIDERA S.A., priority 2013, published 2015).

Experiments:
[1] = system: sunflower hybrids and lines (A122T, A205V, A205V/A122T); assay: Field trial North Dakota 2006, phytotoxicity ratings after imazamox or imazapyr, Example 3; type: in vivo, Helianthus annuus; details: for phytotoxicity: 200 g ai/ha
Procedure: • Spray volume: 10 gallons per acre (GPA) (or 100 liters/ha) for backpack sprayer or 20 GPA (or 200 liters/ha) for tractor mounted boom • Growth Stage at Herbicide Application: 2-4 leaves
Entry 15 (WT Maintainer line) was left unsprayed in all treatment blocks.
Phytotoxicity ratings were assessed at 7 and 21 days following herbicide application.
The data was subjected to an ANOVA analysis and the means from the 3 repetitions are presented in Table 7 (phytotoxicity at 7 days post-treatment) and Table 8 (phytotoxicity at 21 days post-treatment).

[2] = system: AHAS enzyme, A205V Homozygous sunflower; assay: AHAS enzyme activity assay, leaf extract; type: biochemical, Helianthus annuus
Procedure: (§1) Twelve greenhouse grown sunflower plants from each of the lines depicted in Table 21 were bulked and subjected to an AHAS enzyme activity assay via the method of Singh et al. (1988) Anal. Biochem. 171:173-179. Each activity assay was repeated twice. Due to the large number of samples, the experiment was split into two sets (Table 21).
(§2) Young, actively growing leaves, from four week old plantlets, were ground in a mortar and pestle with liquid N2 and extracted with a buffer composed of 100 mM Pyruvate, 200 mM KH2PO4, 20 mM MgCl2, 2 mM thiamine pyrophosphate and […]. Plant extracts were then spun through a 10 mL Zeba TM desalt spin column (Pierce #89893) as per the manufacturer's recommendation. The inhibition assay was performed as described by Singh et al. (1988) Anal. Biochem. 171:173-179. Assays were conducted in a 96-well format. Fifty μl of inhibitor was added to each well containing 50 μl of soluble protein extract to give final concentrations of 0.78, 1.56, 3.125, 6.25, 12.5, 25, 50 and 100 μM imazamox or 0.78, 1.56, 3.125, 6.25, 12.5, 25, 50 and 100 μM imazapyr. Zero herbicide controls were also included for each line. Reactions were processed as outlined by Singh et al. (1988) Anal. Biochem. 171:173-179. Absorbance was measured at 530 nm. AHAS activity, expressed as the mean of the absorbance values for each treatment, was presented as a percentage of the mean of the zero-herbicide controls.

[3] = system: AHAS enzyme, A122T/A205V Heterozygous sunflower; assay: AHAS enzyme activity assay, leaf extract; type: biochemical, Helianthus annuus; details: A122T/A205V heterozygous hybrid (Set 1); 100 μM
Procedure: as §1, §2

[4] = system: AHAS enzyme, A122T Homozygous sunflower; assay: AHAS enzyme activity assay, leaf extract; type: biochemical, Helianthus annuus
Procedure: as §1, §2

COCc1cnc(C2=NC(C)(C(C)C)C(=O)N2)c(C(=O)O)c1 (centres unmarked) [imazamox]
Phytotoxicity Rating (% Crop Injury) ([1]; 10-hybrid (IMI CMS × GM40 restorer, A205/A122 hetero/double), 200 g ai/ha + 0.25% NIS, 21 DAT): 1.7%
Phytotoxicity Rating (% Crop Injury) ([1]; 11-hybrid (GM40 CMS × IMI restorer, A205/A122 hetero/double), 50 g ai/ha + 0.25% NIS, 7 DAT): 0.0%
Phytotoxicity Rating (% Crop Injury) ([1]; 11-hybrid (GM40 CMS × IMI restorer, A205/A122 hetero/double), 50 g ai/ha + 0.25% NIS, 21 DAT): 0.0%
Phytotoxicity Rating (% Crop Injury) ([1]; 11-hybrid (GM40 CMS × IMI restorer, A205/A122 hetero/double), 100 g ai/ha + 0.25% NIS, 7 DAT): 3.3%
Phytotoxicity Rating (% Crop Injury) ([1]; 11-hybrid (GM40 CMS × IMI restorer, A205/A122 hetero/double), 100 g ai/ha + 0.25% NIS, 21 DAT): 0.0%
Phytotoxicity Rating (% Crop Injury) ([1]; 11-hybrid (GM40 CMS × IMI restorer, A205/A122 hetero/double), 200 g ai/ha + 0.25% NIS, 7 DAT): 11.7%
Phytotoxicity Rating (% Crop Injury) ([1]; 11-hybrid (GM40 CMS × IMI restorer, A205/A122 hetero/double), 200 g ai/ha + 0.25% NIS, 21 DAT): 3.3%
Phytotoxicity Rating (% Crop Injury) ([1]; 12-hybrid (IMI CMS × GM40 restorer, A205/A122 hetero/double), 50 g ai/ha + 0.25% NIS, 7 DAT): 10.0%
Phytotoxicity Rating (% Crop Injury) ([1]; 12-hybrid (IMI CMS × GM40 restorer, A205/A122 hetero/double), 50 g ai/ha + 0.25% NIS, 21 DAT): 3.3%
Phytotoxicity Rating (% Crop Injury) ([1]; 12-hybrid (IMI CMS × GM40 restorer, A205/A122 hetero/double), 100 g ai/ha + 0.25% NIS, 7 DAT): 10.0%
Phytotoxicity Rating (% Crop Injury) ([1]; 12-hybrid (IMI CMS × GM40 restorer, A205/A122 hetero/double), 100 g ai/ha + 0.25% NIS, 21 DAT): 3.3%
Phytotoxicity Rating (% Crop Injury) ([1]; 12-hybrid (IMI CMS × GM40 restorer, A205/A122 hetero/double), 200 g ai/ha + 0.25% NIS, 7 DAT): 11.7%
Phytotoxicity Rating (% Crop Injury) ([1]; 12-hybrid (IMI CMS × GM40 restorer, A205/A122 hetero/double), 200 g ai/ha + 0.25% NIS, 21 DAT): 3.3%
Phytotoxicity Rating (% Crop Injury) ([1]; 13-hybrid (GM40 CMS × GM40 restorer, A122 homo), 50 g ai/ha + 0.25% NIS, 7 DAT): 3.3%
Phytotoxicity Rating (% Crop Injury) ([1]; 13-hybrid (GM40 CMS × GM40 restorer, A122 homo), 50 g ai/ha + 0.25% NIS, 21 DAT): 0.0%
Phytotoxicity Rating (% Crop Injury) ([1]; 13-hybrid (GM40 CMS × GM40 restorer, A122 homo), 100 g ai/ha + 0.25% NIS, 7 DAT): 5.0%
Phytotoxicity Rating (% Crop Injury) ([1]; 13-hybrid (GM40 CMS × GM40 restorer, A122 homo), 100 g ai/ha + 0.25% NIS, 21 DAT): 1.7%
Phytotoxicity Rating (% Crop Injury) ([1]; 13-hybrid (GM40 CMS × GM40 restorer, A122 homo), 200 g ai/ha + 0.25% NIS, 7 DAT): 10.0%
Phytotoxicity Rating (% Crop Injury) ([1]; 13-hybrid (GM40 CMS × GM40 restorer, A122 homo), 200 g ai/ha + 0.25% NIS, 21 DAT): 3.3%
Phytotoxicity Rating (% Crop Injury) ([1]; 14-hybrid (GM40 CMS × GM40 restorer, A122 homo), 50 g ai/ha + 0.25% NIS, 7 DAT): 5.0%
Phytotoxicity Rating (% Crop Injury) ([1]; 14-hybrid (GM40 CMS × GM40 restorer, A122 homo), 50 g ai/ha + 0.25% NIS, 21 DAT): 0.0%
Phytotoxicity Rating (% Crop Injury) ([1]; 14-hybrid (GM40 CMS × GM40 restorer, A122 homo), 100 g ai/ha + 0.25% NIS, 7 DAT): 6.7%
Phytotoxicity Rating (% Crop Injury) ([1]; 14-hybrid (GM40 CMS × GM40 restorer, A122 homo), 100 g ai/ha + 0.25% NIS, 21 DAT): 3.3%
Phytotoxicity Rating (% Crop Injury) ([1]; 14-hybrid (GM40 CMS × GM40 restorer, A122 homo), 200 g ai/ha + 0.25% NIS, 7 DAT): 11.7%
Phytotoxicity Rating (% Crop Injury) ([1]; 14-hybrid (GM40 CMS × GM40 restorer, A122 homo), 200 g ai/ha + 0.25% NIS, 21 DAT): 5.0%
Phytotoxicity Rating (% Crop Injury) ([1]; 15-hybrid (WT × GM40 restorer, A122 hetero), 50 g ai/ha + 0.25% NIS, 7 DAT): 10.0%
Phytotoxicity Rating (% Crop Injury) ([1]; 15-hybrid (WT × GM40 restorer, A122 hetero), 50 g ai/ha + 0.25% NIS, 21 DAT): 6.7%
Phytotoxicity Rating (% Crop Injury) ([1]; 15-hybrid (WT × GM40 restorer, A122 hetero), 100 g ai/ha + 0.25% NIS, 7 DAT): 11.7%
Phytotoxicity Rating (% Crop Injury) ([1]; 15-hybrid (WT × GM40 restorer, A122 hetero), 100 g ai/ha + 0.25% NIS, 21 DAT): 11.7%
Phytotoxicity Rating (% Crop Injury) ([1]; 15-hybrid (WT × GM40 restorer, A122 hetero), 200 g ai/ha + 0.25% NIS, 7 DAT): 16.7%
Phytotoxicity Rating (% Crop Injury) ([1]; 15-hybrid (WT × GM40 restorer, A122 hetero), 200 g ai/ha + 0.25% NIS, 21 DAT): 30.0%
Phytotoxicity Rating (% Crop Injury) ([1]; 16-hybrid (WT × GM40 restorer, A122 hetero), 50 g ai/ha + 0.25% NIS, 7 DAT): 10.0%
Phytotoxicity Rating (% Crop Injury) ([1]; 16-hybrid (WT × GM40 restorer, A122 hetero), 50 g ai/ha + 0.25% NIS, 21 DAT): 6.7%
Phytotoxicity Rating (% Crop Injury) ([1]; 16-hybrid (WT × GM40 restorer, A122 hetero), 100 g ai/ha + 0.25% NIS, 7 DAT): 15.0%
Phytotoxicity Rating (% Crop Injury) ([1]; 16-hybrid (WT × GM40 restorer, A122 hetero), 100 g ai/ha + 0.25% NIS, 21 DAT): 16.7%
Phytotoxicity Rating (% Crop Injury) ([1]; 16-hybrid (WT × GM40 restorer, A122 hetero), 200 g ai/ha + 0.25% NIS, 7 DAT): 23.3%
Phytotoxicity Rating (% Crop Injury) ([1]; 16-hybrid (WT × GM40 restorer, A122 hetero), 200 g ai/ha + 0.25% NIS, 21 DAT): 31.7%
phytotoxicity ([1]; heterozygous A205V/A122T lines, 21 DAT): 2-3%
phytotoxicity ([1]; homozygous A122T/A122T lines, 21 DAT): 3-5%
phytotoxicity ([1]; homozygous A205V/A205V lines, 21 DAT): 15-22%
AHAS activity ([2]; A205V homozygous (Set 2), 50 μM): 30%
AHAS activity ([2]; A205V homozygous (Set 2), 100 μM): 26%
AHAS activity ([2]; A205V homozygous hybrid (Set 1), 100 μM): 36 % of untreated control
AHAS activity [3]: 59%
AHAS activity ([4]; A122T homozygous (Set 2), 50 μM): 63 % relative to the untreated co
AHAS activity ([4]; A122T homozygous (Set 2), 100 μM): 60 % relative to the untreated co
AHAS activity ([4]; A122T homozygous hybrid (Set 1), 100 μM): 69 % of untreated control
